Reference: paper PMC7356956, “1-(1-Arylethylpiperidin-4-yl)thymine Analogs as Antimycobacterial TMPK Inhibitors” (Molecules, 2020)
≈ marks a conversion by molar mass, not a printed value. Where two headings read alike, the source gives them in different places.

Tests used:
MtbTMPK [1] = target: T1, MtbTMPK (Mycobacterium tuberculosis, UniProt P9WKE1); assay: MtbTMPK enzymatic assay (spectrophotometric coupled assay); format: biochemical; conditions: for MtbTMPK inhibitory potency, in words: qualitative statement, compared with 3
Procedure: The enzymatic assay was performed as previously reported on the recombinant purified MtbTMPK [14, 33]. As described by Blondin et al., compounds were evaluated by a serial dilution method using the spectrophotometric assay at fixed concentrations of adenosine triphosphate (ATP) (0.5 mM) and thymidine monophosphate (dTMP; 0.05 mM). The reaction medium includes 50-mM Tris-HCl; pH 7.4; 50-mM KCl; 2-mM MgCl2; 0.2-mM nicotinamide adenine dinucleotide (NADH); 1-mM phosphoenol pyruvate and 2 units each of coupling enzymes (lactate dehydrogenase, pyruvate kinase and nucleoside diphosphate kinase). From the experimental data, the IC50 value was calculated using KaleidaGraph 4.5.3.

[2] = test system: M. tuberculosis H37Rv (ATCC 27294); assay: In vitro antituberculosis assay (MIC, broth microdilution); format: cell-based, Mycobacterium tuberculosis; conditions: for MIC: read-out: MIC (H37Rv)
[3] = In vitro cytotoxicity assay on MRC-5 fibroblasts; format: cell-based; conditions: human
Procedure: (§1) The cytotoxicity of compounds on MRC-5 fibroblasts was performed exactly as previously reported.

MRC-5 fibroblasts = assay: In vitro cytotoxicity assay on MRC-5 fibroblasts; format: cell-based; conditions: for SI (selectivity index): IC50 (MRC-5)/MIC (H37Rv)
Procedure: as §1

MtbTMPK [4] = target: T1, MtbTMPK; design: method as in PMID 29510037, PMID 27614917
[5] = test system: M. tuberculosis H37Rv (ATCC 27294); conditions: previously reported values; cited from earlier work
[6] = ATP 0.5 mM, dTMP 0.05 mM, mean ± SD of at least two measurements, NI: no inhibition at a concentration of 0.2 mM, read-out: IC50 (MtbTMPK)
[7] = cytotoxicity against MRC-5 fibroblasts, read-out: IC50 (MRC-5)
[8] = Mycobacterium tuberculosis, minimum concentration required to inhibit >99% growth of M. tuberculosis H37Rv in liquid culture, 7–14 days

T1 sequence (P9WKE1 whole entry, looked up): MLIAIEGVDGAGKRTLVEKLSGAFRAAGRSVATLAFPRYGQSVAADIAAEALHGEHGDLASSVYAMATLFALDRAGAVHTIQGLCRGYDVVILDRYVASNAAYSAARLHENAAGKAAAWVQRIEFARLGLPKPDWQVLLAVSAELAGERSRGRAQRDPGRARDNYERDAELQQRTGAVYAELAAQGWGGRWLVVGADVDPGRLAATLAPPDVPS

| Compound | IC50 (MtbTMPK [1]; [6]) | MtbTMPK inhibitory potency, in words (MtbTMPK [1]) | MIC ([2]; Mycobacterium tuberculosis) | IC50 [3, 7] | SI (selectivity index) (MRC-5 fibroblasts) | further results |
| --- | --- | --- | --- | --- | --- | --- |
| Cc1cn(C2CCN(CCc3ccc(-c4ccccc4)cc3)CC2)c(=O)[nH]c1=O [Compound 21b, 1-(1-(2-([1,1’-Biphenyl]-4-yl)ethyl)piperidin-4-yl)-5-methylpyrimidine-2,4(1H,3H)-dione] | > 200 µM | complete loss of enzyme inhibitory potency | > 50 µM | 22.2 µM | – | – |
| Cc1cn(C2CCN(CCc3cccc(Oc4ccccc4)c3)CC2)c(=O)[nH]c1=O [Compound 3, reference compound] | 17 ± 2 µM | – | 37 µM (≈ 15 µg/mL) | > 64 µM | >1.73 | IC50 (MtbTMPK [4]; previously reported values; read-out: IC50 (MtbTMPK), reported; cited from earlier work): 11 µM; MIC (H37Rv), reported [5]: 37 µM (≈ 15 µg/mL) |
| Cc1cn(C2CCN(CCc3cccc(Oc4cccc(Cl)c4)c3)CC2)c(=O)[nH]c1=O [Compound 21j, 1-(1-(3-(3-Chlorophenoxy)phenethyl)piperidin-4-yl)-5-methylpyrimidine-2,4(1H,3H)-dione] | – | significant improvement in the inhibitory potency | 19 µM (≈ 8.36 µg/mL) | 25.2 µM | 1.33 | improvement of MtbTMPK inhibitory potency relative to 3 (MtbTMPK [1]; compared with compound 3): three; improvement of H37Rv growth inhibitory activity relative to 3 ([2]; compared with compound 3): two |
| Cc1cn(C2CCN(C(=O)Cc3cccc(Oc4ccccc4)c3)CC2)c(=O)[nH]c1=O [Compound 26, 5-Methyl-1-(1-(2-(3-phenoxyphenyl)acetyl)piperidin-4-yl)pyrimidine-2,4(1H,3H)-dione] | – | weak enzyme inhibition | – | – | – | IC50 (MtbTMPK [1]): 230 ± 63 µM; MIC [2, 8]: > 50 µM; IC50 [3]: > 64 µM |
| COc1ccc(Oc2cccc(CCN3CCC(n4cc(C)c(=O)[nH]c4=O)CC3)c2)cc1 [Compound 21i, 1-(1-(3-(4-Methoxyphenoxy)phenethyl)piperidin-4-yl)-5-methylpyrimidine-2,4(1H,3H)-dione] | 34 ± 5 µM | – | 25 µM (≈ 10.9 µg/mL) | > 64 µM | >2.56 | – |
| Cc1cn(C2CCN(CCc3cccc(Oc4ccc(Cl)cc4)c3)CC2)c(=O)[nH]c1=O [Compound 21h, 1-(1-(3-(4-Chlorophenoxy)phenethyl)piperidin-4-yl)-5-methylpyrimidine-2,4(1H,3H)-dione] | 49 ± 8 µM | – | 12.5 µM (≈ 5.5 µg/mL) | 5.81 µM | 0.46 | increase in IC50-value (MtbTMPK) relative to 21j (MtbTMPK [1]; compared with isomer 21j): 10 fold |
| Cc1cn(C2CCCN(Cc3cccc(Oc4ccccc4)c3)C2)c(=O)[nH]c1=O (centres unmarked) [Compound 1] | – | – | – | – | – | IC50 (MtbTMPK [4]; read-out: IC50 (MtbTMPK), reported; previously reported values; cited from earlier work): 21 µM |
| Cc1cn(C2CCN(CCc3cccc(OCc4ccccc4Cl)c3)CC2)c(=O)[nH]c1=O [Compound 21o, 1-(1-(3-((2-Chlorobenzyl)oxy)phenethyl)piperidin-4-yl)-5-methylpyrimidine-2,4(1H,3H)-dione] | 70 ± 9 µM | – | 19 µM (≈ 8.63 µg/mL) | 7.08 µM | 0.37 | – |
| Cc1cn(C2CCN(CCc3cccc(Oc4ccc(C#N)cc4)c3)CC2)c(=O)[nH]c1=O [Compound 21k, 4-(3-(2-(4-(5-Methyl-2,4-dioxo-3,4-dihydropyrimidin-1(2H)-yl)piperidin-1-yl)ethyl)phenoxy)benzonitrile] | 126 ± 10 µM | significant drop in MtbTMPK inhibitory potency | ≥ 50 µM | > 64 µM | – | – |
| Cc1cn(C2CCN(CCc3cccc(Oc4ccc(C(F)(F)F)cc4)c3)CC2)c(=O)[nH]c1=O [Compound 21m, 5-Methyl-1-(1-(3-(4-(trifluoromethyl)phenoxy)phenethyl)piperidin-4-yl)pyrimidine-2,4(1H,3H)-dione] | 135 ± 22 µM | significant drop in MtbTMPK inhibitory potency | 37 µM (≈ 17.5 µg/mL) | > 64 µM | >1.73 | – |
| Cc1cn(C2CCN(CCc3ccccc3)CC2)c(=O)[nH]c1=O [Compound 21a, 5-Methyl-1-(1-phenethylpiperidin-4-yl)pyrimidine-2,4(1H,3H)-dione] | 680 ± 90 µM | – | > 50 µM | > 64 µM | – | loss/decrease in MtbTMPK inhibitory potency relative to 3 (MtbTMPK [1]; compared with compound 3): 40 fold |
| 1-(1-(3-((3,4-Dichlorobenzyl)oxy)phenethyl)piperidin-4-yl)-5-methylpyrimidine-2,4(1H,3H)-dione [Compound 21p] | – | – | – | – | – | MIC ([2]; minimum concentration required to inhibit >99% growth of M. tuberculosis H37Rv in liquid culture, 7–14 days): 12.5 µM; IC50 (MRC-5 fibroblasts; cytotoxicity against MRC-5 fibroblasts): 4.22 µM |
| Cc1cn(C2CCN(CCc3ccc(Oc4ccccc4)cc3)CC2)c(=O)[nH]c1=O [Compound 21e, 5-Methyl-1-(1-(4-phenoxyphenethyl)piperidin-4-yl)pyrimidine-2,4(1H,3H)-dione] | 160 ± 22 µM | negative effect on the inhibitory activity | > 50 µM | > 64 µM | – | – |
| Cc1cn(C2CCCN(CCc3cccc(Oc4ccccc4)c3)C2)c(=O)[nH]c1=O (centres unmarked) [Compound 23, 5-Methyl-1-(1-(3-phenoxyphenethyl)piperidin-3-yl)pyrimidine-2,4(1H,3H)-dione] | – | – | – | – | – | IC50 (MtbTMPK [1]): 192 ± 53 µM; loss/decrease in MtbTMPK inhibitory potency relative to 3 (MtbTMPK [1]; compared with compound 3): > 10 fold; MIC [2, 8]: > 50 µM; IC50 [3]: 21.8 µM |
| c1ccc(Oc2cccc(CCN3CCC(c4ccccc4)CC3)c2)cc1 [Compound 27, 1-(3-Phenoxyphenethyl)-4-phenylpiperidine] | – | complete loss of the inhibitory potency | – | – | 1.29 | IC50 (MtbTMPK [1]; read-out: IC50 (MtbTMPK), ATP 0.5 mM, dTMP 0.05 mM, mean ± SD of at least two measurements, NI: no inhibition at a concentration of 0.2 mM): > 200 µM; MIC [2, 8]: 6.25 µM (≈ 2.23 µg/mL); antimycobacterial activity (H37Rv), in words ([2]; qualitative statement): potent antimycobacterial activity; IC50 [3]: 8.06 µM; cytotoxicity (MRC-5), in words (MRC-5 fibroblasts; qualitative statement, relative to antimycobacterial activity): equipotent cytotoxicity |
| Cc1ccc(Oc2cccc(CCN3CCC(n4cc(C)c(=O)[nH]c4=O)CC3)c2)cc1 [Compound 21f, 5-Methyl-1-(1-(3-(p-tolyloxy)phenethyl)piperidin-4-yl)pyrimidine-2,4(1H,3H)-dione] | 49 ± 7 µM | – | 19 µM (≈ 7.97 µg/mL) | 8.42 µM | 0.44 | – |
| Cc1cn(C2CCN(CCc3cccc(Oc4ccc(Cl)c(Cl)c4)c3)CC2)c(=O)[nH]c1=O [Compound 21g, 1-(1-(3-(3,4-Dichlorophenoxy)phenethyl)piperidin-4-yl)-5-methylpyrimidine-2,4(1H,3H)-dione] | 45 ± 2 µM | – | 19 µM (≈ 9.01 µg/mL) | 5.66 µM | 0.30 | – |
| Cc1cn(C2CCN(CCc3ccccc3Oc3ccccc3)CC2)c(=O)[nH]c1=O [Compound 21c, 5-Methyl-1-(1-(2-phenoxyphenethyl)piperidin-4-yl)pyrimidine-2,4(1H,3H)-dione] | 100 ± 15 µM | negative effect on the inhibitory activity | 50 µM (≈ 20.3 µg/mL) | 26.8 µM | 0.54 | – |
| Cc1cn(C2CCN(CCc3cccc(OCc4cccc(Cl)c4)c3)CC2)c(=O)[nH]c1=O [Compound 21q, 1-(1-(3-((3-Chlorobenzyl)oxy)phenethyl)piperidin-4-yl)-5-methylpyrimidine-2,4(1H,3H)-dione] | 44 ± 2 µM | – | 25 µM (≈ 11.3 µg/mL) | 19.8 µM | 0.79 | – |
| Cc1cn(C2CCN(CCc3cccc(Oc4ccc([N+](=O)[O-])cc4)c3)CC2)c(=O)[nH]c1=O [Compound 21l, 5-Methyl-1-(1-(3-(4-nitrophenoxy)phenethyl)piperidin-4-yl)pyrimidine-2,4(1H,3H)-dione] | 91 ± 10 µM | significant drop in MtbTMPK inhibitory potency | 37 µM (≈ 16.7 µg/mL) | > 64 µM | >1.73 | – |
